Results reported in ChEMBL document CHEMBL1201862, “PubChem BioAssay data set” (2004).
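1) Cells in 96-well plates. 2) Compound, 48 h, 5 concentrations. 3) Linear interpolation between surrounding doses. 4) Unreached endpoint = highest concentration. GI50 marks 50% less growth.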 Calls of active or inactive are those of the source. Rule as the data show it: active = GI50 up to about 1.1 µM and inactive = higher.

What was measured:
Test in all cases: NCI-60 cell line screen, 48 h
KM-20L2 = test system: KM-20L2
SF-539 = test system: SF-539
K562 = test system: K562
HOP-92 = test system: HOP-92
DMS-114 = test system: DMS-114
OVCAR-4 = test system: OVCAR-4
OVCAR-5 = test system: OVCAR-5
NCI-H460 = test system: NCI-H460
U-251 = test system: U-251
OVCAR-3 = test system: OVCAR-3
RPMI-8226 = test system: RPMI-8226
SN12C = test system: SN12C
UACC-62 = test system: UACC-62
HCT-116 = test system: HCT-116
DLD-1 = test system: DLD-1
SNB-75 = test system: SNB-75
CAKI-1 = test system: CAKI-1
RXF 631 = test system: RXF 631
HOP-18 = test system: HOP-18
SF-295 = test system: SF-295
RXF 393 = test system: RXF 393
M14 = test system: M14
SF-268 = test system: SF-268
ACHN = test system: ACHN
UO-31 = test system: UO-31
HOP-62 = test system: HOP-62
HCT-15 = test system: HCT-15
SW-620 = test system: SW-620
SNB-78 = test system: SNB-78
EKVX = test system: EKVX
A549 = test system: A549
SK-OV-3 = test system: SK-OV-3
UACC-257 = test system: UACC-257
Malme-3M = test system: Malme-3M
CCRF-CEM = test system: CCRF-CEM
OVCAR-8 = test system: OVCAR-8
SK-MEL-28 = test system: SK-MEL-28
XF498 = test system: XF498
COLO 205 = test system: COLO 205
MOLT-4 = test system: MOLT-4
HL-60 = test system: HL-60
TK-10 = test system: TK-10
SR = test system: SR
NCI-H23 = test system: NCI-H23
SK-MEL-5 = test system: SK-MEL-5
DMS-273 = test system: DMS-273
LXFL 529 = test system: LXFL 529
IGROV-1 = test system: IGROV-1
HT-29 = test system: HT-29
M19-MEL = test system: M19-MEL
A498 = test system: A498
SNB-19 = test system: SNB-19
786-0 = test system: 786-0
SK-MEL-2 = test system: SK-MEL-2
KM12 = test system: KM12
HCC 2998 = test system: HCC 2998
NCI-H226 = test system: NCI-H226
LOX IMVI = test system: LOX IMVI

## O=[N+]([O-])c1ccc(C2N3CCCCC3[C@@H]3c4[nH]c5ccccc5c4CCN23)cc1 (stereo partly drawn)
KM-20L2
  GI50: 11 µM (inactive)
SF-539
  GI50: 13.3 µM (inactive)
K562
  GI50: 7.82 µM (inactive)
HOP-92
  GI50: 44.6 µM (inactive)
DMS-114
  GI50: 7.19 µM (inactive)
OVCAR-4
  GI50: 22.6 µM (inactive)
OVCAR-5
  GI50: 25.9 µM (inactive)
NCI-H460
  GI50: 19.2 µM (inactive)
U-251
  GI50: 20.2 µM (inactive)
OVCAR-3
  GI50: 18.4 µM (inactive)
RPMI-8226
  GI50: 16.5 µM (inactive)
SN12C
  GI50: 15.4 µM (inactive)
UACC-62
  GI50: 5.22 µM (inactive)
HCT-116
  GI50: 6.44 µM (inactive)
DLD-1
  GI50: 10.8 µM (inactive)
SNB-75
  GI50: 0.0638 µM (active)
CAKI-1
  GI50: 26.9 µM (inactive)
RXF 631
  GI50: 28.5 µM (inactive)
HOP-18
  GI50: 67.3 µM (inactive)
SF-295
  GI50: 26.1 µM (inactive)
RXF 393
  GI50: 4.59 µM (inactive)
M14
  GI50: 16.1 µM (inactive)
SF-268
  GI50: 15.4 µM (inactive)
ACHN
  GI50: 12.8 µM (inactive)
UO-31
  GI50: 16.1 µM (inactive)
HOP-62
  GI50: 19.5 µM (inactive)
HCT-15
  GI50: 14.3 µM
SW-620
  GI50: 22.6 µM (inactive)
SNB-78
  GI50: 3.96 µM (inactive)
EKVX
  GI50: 29.9 µM (inactive)
A549
  GI50: 19.5 µM (inactive)
SK-OV-3
  GI50: 22.6 µM (inactive)
UACC-257
  GI50: 16.5 µM (inactive)
Malme-3M
  GI50: < 0.01 µM (active)
CCRF-CEM
  GI50: 27.5 µM (inactive)
OVCAR-8
  GI50: 30.4 µM (inactive)
SK-MEL-28
  GI50: 16.3 µM (inactive)
XF498
  GI50: 17.8 µM (inactive)
COLO 205
  GI50: 17.6 µM (inactive)
MOLT-4
  GI50: 10.2 µM (inactive)
HL-60
  GI50: 80.2 µM (inactive)
TK-10
  GI50: 10.7 µM (inactive)
SR
  GI50: 3.12 µM (inactive)
NCI-H23
  GI50: 15.5 µM (inactive)
SK-MEL-5
  GI50: 15 µM (inactive)
DMS-273
  GI50: 17.5 µM (inactive)
LXFL 529
  GI50: 16.8 µM (inactive)
IGROV-1
  GI50: 24 µM (inactive)
HT-29
  GI50: 3.48 µM (inactive)
M19-MEL
  GI50: 6.07 µM (inactive)
A498
  GI50: 11.3 µM (inactive)
SNB-19
  GI50: 16.6 µM (inactive)
786-0
  GI50: 28.1 µM (inactive)
SK-MEL-2
  GI50: 16.9 µM (inactive)

## CC(=O)N(C)c1ccc2c(ccc[n+]2[O-])c1[N+](=O)[O-]
KM-20L2
  GI50: > 100 µM (inactive)
SF-539
  GI50: > 100 µM (inactive)
K562
  GI50: > 100 µM (inactive)
DMS-114
  GI50: > 100 µM (inactive)
OVCAR-4
  GI50: > 100 µM (inactive)
OVCAR-5
  GI50: > 100 µM (inactive)
NCI-H460
  GI50: > 100 µM (inactive)
U-251
  GI50: > 100 µM (inactive)
OVCAR-3
  GI50: > 100 µM (inactive)
RPMI-8226
  GI50: > 100 µM (inactive)
SN12C
  GI50: > 100 µM (inactive)
UACC-62
  GI50: > 100 µM (inactive)
KM12
  GI50: > 100 µM (inactive)
HCT-116
  GI50: > 100 µM (inactive)
DLD-1
  GI50: > 100 µM (inactive)
SNB-75
  GI50: > 100 µM (inactive)
CAKI-1
  GI50: > 100 µM (inactive)
RXF 631
  GI50: > 100 µM (inactive)
HOP-18
  GI50: > 100 µM (inactive)
SF-295
  GI50: > 100 µM (inactive)
RXF 393
  GI50: > 100 µM (inactive)
M14
  GI50: > 100 µM (inactive)
SF-268
  GI50: > 100 µM (inactive)
ACHN
  GI50: > 100 µM (inactive)
UO-31
  GI50: > 100 µM (inactive)
HOP-62
  GI50: > 100 µM (inactive)
HCT-15
  GI50: > 100 µM
SW-620
  GI50: > 100 µM (inactive)
SNB-78
  GI50: > 100 µM (inactive)
EKVX
  GI50: > 100 µM (inactive)
A549
  GI50: > 100 µM (inactive)
UACC-257
  GI50: > 100 µM (inactive)
Malme-3M
  GI50: > 100 µM (inactive)
CCRF-CEM
  GI50: > 100 µM (inactive)
OVCAR-8
  GI50: > 100 µM (inactive)
SK-MEL-28
  GI50: > 100 µM (inactive)
XF498
  GI50: > 100 µM (inactive)
COLO 205
  GI50: > 100 µM (inactive)
MOLT-4
  GI50: > 100 µM (inactive)
HL-60
  GI50: > 100 µM (inactive)
TK-10
  GI50: > 100 µM (inactive)
HCC 2998
  GI50: > 100 µM (inactive)
NCI-H23
  GI50: > 100 µM (inactive)
SK-MEL-5
  GI50: > 100 µM (inactive)
DMS-273
  GI50: > 100 µM (inactive)
LXFL 529
  GI50: > 100 µM (inactive)
IGROV-1
  GI50: > 100 µM (inactive)
HT-29
  GI50: > 100 µM (inactive)
M19-MEL
  GI50: > 100 µM (inactive)
A498
  GI50: > 100 µM (inactive)
NCI-H226
  GI50: > 100 µM (inactive)
LOX IMVI
  GI50: > 100 µM (inactive)
786-0
  GI50: > 100 µM (inactive)
SK-MEL-2
  GI50: > 100 µM (inactive)
